Laboratory results reported in US12698473B2, “Cell-containing structure” (Ricoh Company, Ltd., priority 2021, dated 2026).

Key:
[1] = tested on: cultured product composed of cell masses containing hiPSC-Neuron and astrocytes derived from a human fetus; experiment: Pharmacological test with anti-epileptic drugs on MEA plate (extracellular potential, raster plot, number of spikes); format: cell-based; details: Before vs After drug exposure; FIGS. 6-8
Method: From 22 days after cell seeding, once a week, extracellular potential data was acquired for 10 minutes using an extracellular measurement device maestro (Axion Biosystems).
(§1) That is, using maestro Pro (commercially available from Axion Biosystems), for the prepared MEA Cytoview Plate (commercially available from Axion Biosystems), the results of the extracellular potential of the cultured product 2 composed of cell masses containing hiPSC-Neuron and astrocytes derived from a human fetus, which were adhered to the well bottom 1 shown in FIG. 1 and FIG. 2, measured using maestro Pro for 10 minutes are illustrated as a raster plot 6 of FIG. 3 and a graph 7 of the number of detected spikes. […] The spontaneous firing frequency (Hz) can be detected from the number of peaks in the graph 7 per hour.
Using the plate produced in Experimental Example 1, a pharmacological test was performed using various drugs. The effect of the drug was confirmed by exposing an anti-epileptic drug having a function of inhibiting nerve firing to a sample. The evaluated drugs were Carbamazepine, Phenytoin, and Zonisamide, and the measurement was performed under the same conditions as the measurement of the extracellular potential data of Experimental Example 1.
A graph of a raster plot that visualizes the firing state and the number of detected. spikes for each drug is shown for Carbamazepine in FIG. 6, Phenytoin in FIG. 7, and Zonisamide in FIG. 8. Before in the drawings indicates before drug exposure, and After indicates after drug exposure. In all of the drugs, it was observed that the spontaneous firing frequency that could be detected from the number of spikes after drug exposure was reduced, and the mode in which that firing activity of the nerve was reduced after drug exposure was confirmed. That is, it was observed that the plate of this example could be used for detection in the pharmacological test using various drugs.

[2] = tested on: cultured product composed of cell masses containing hiPSC-Neuron and astrocytes derived from a human fetus; experiment: Evaluation of electrophysiological neurotoxicity of test compound: firing frequency response on MEA plate; format: cell-based; details: spontaneous firing frequency before exposure 200 Hz or more per 16 electrodes; compared with 4 times or more at 4 to <100 Hz; FIG. 10
Method: A multi-electrode array (MEA) plate was prepared as a cell-containing container which is a cell-containing structure of the present embodiment.
As a plate used for the MEA plate, CytoView MEA Plate (commercially available from Axion Biosystems) having 6×8 wells (a total of 48 wells) and a micro electrode array on the well bottom was used. […]
In the main test, the action potential of neurons adhered onto a micro electrode 3 arranged on the well bottom as shown in FIG. 1 was measured as an extracellular potential, and the neurotoxicity was evaluated from the change in extracellular potential when the test compound was treated. […]
as §1, with “[…]. […]” for “hour.”

SMILES | spontaneous firing frequency detected from the number of spikes after drug exposure [1] | response rate to the test compound (firing frequency after exposure) [2]
NS(=O)(=O)Cc1noc2ccccc12 [Zonisamide] | reduced | –
NC(=O)N1c2ccccc2C=Cc2ccccc21 [Carbamazepine] | reduced | –
CC[C@@H]1C(=O)OC[C@@H]1Cc1cncn1C [Pilocarpine] | – | about half that
O=C1NC(=O)C(c2ccccc2)(c2ccccc2)N1 [Phenytoin] | reduced | –
Nc1ccncc1 [4-AP] | – | about half that
